Test results published in patent US11679114B2, “Progestogen-only oral contraception” (Navad Life Sciences Pte, priority 2021, dated 2023).
“And” between values parts separate entries of the source, which are not always exact repeats. Identical values can stand only once.

Legend:
Format in all cases: in vivo, human
healthy, cyclic women [1] = assay: Ovarian activity according the Hoogland-Skouby score during two 28-day treatment periods
Description: (§1) The tablets prepared in Example 1 were tested in a single-center, open-label, adaptive design study to evaluate the influence on hormonal and ovarian function and vaginal bleeding pattern of different higher dosages of LNG administered once daily for 28 days over two consecutive treatment cycles in healthy, cyclic women.
The first tested dosage was 0.095 mg per day. The choice of subsequent dosages depended on the occurrence of ovulations in the previous treatment groups. The study was stopped when the lowest dosage completely inhibiting ovulation was identified, and one higher and one lower dosage were investigated.
(§2) Subjects started study medication intake on the first day of menstrual bleeding after the pre-treatment cycle. One tablet was taken orally, around the same time every morning, during 56 consecutive days. Study visits were planned every three (±1) days from treatment day 3 (±1) until 27 (±1) and from day 31 (±1) until day 55 (±1). At each visit the diameter of the largest follicle-like structure (FLS) and serum follicle-stimulating hormone (FSH), luteinizing hormone (LH), estradiol (E2) and P concentrations were measured.
The primary outcome parameter was ovarian activity according the Hoogland-Skouby score (Table 1), determined for each 28-day treatment period (Hoogland H J, Skouby S O. “Ultrasound evaluation of ovarian activity under oral contraceptives,” Contraception 1993; 47: pp. 583-90).
(§3) If ovulation was observed during treatment, the subsequent luteal phase was evaluated using the Landgren criterion, i.e. the luteal phase was considered adequate when P concentrations were >16 nmol/L during at least 5 days (Landgren et al., “Hormonal effects of the 300 μg norethisterone (NET) minipill. 1. Daily steroid levels in 43 subjects during a pretreatment cycle and during the second month of NET administration,” Contraception 1980; 21: pp. 87-113). TVUS measurements of the diameter of the largest FLS (mean of two directions) were performed using a Voluson E8 Expert device (GE Medical Systems). Serum FSH, LH, E2, P and SHBG concentrations were determined by validated chemiluminescent microparticle immunoassays (Abbott, Longford, Ireland). All pharmacodynamic parameters were evaluated descriptively.

healthy, cyclic women [2] = assay: Serum FSH, LH, estradiol (E2) and progesterone (P) concentrations during treatment
Description: as §1, §2, §3

healthy, cyclic women [3] = assay: Serum SHBG concentrations
Description: Serum SHBG concentrations were determined after ovulation in the pre-treatment cycle, on treatment day 55 (±1) and at the end-of-study examination. Multiple-dose PK parameters were investigated in approximately 15 subjects per dose group, 5 of them having a BMI≥30 kg/m^2. Blood samples for LNG determination were taken on treatment day 55 (±1) pre-dose and 0.5, 1, 2, 3, 4, 6 and 24 hours after dosing.
as §3

[4] = LNG 0.095 mg per day, treatment period 1
[5] = LNG 0.095 mg per day, treatment period 2
[6] = LNG 0.115 mg per day, treatment period 1
[7] = LNG 0.115 mg per day, treatment period 2
[8] = LNG 0.135 mg per day, treatment period 1
[9] = LNG 0.135 mg per day, treatment period 2
[10] = LNG 0.095 mg per day, BMI < 30 kg/m^2, entire treatment period
[11] = LNG 0.095 mg per day, BMI ≥ 30 kg/m^2, entire treatment period
[12] = LNG 0.095 mg per day, entire treatment period
[13] = LNG 0.115 mg per day, BMI < 30 kg/m^2, entire treatment period
[14] = LNG 0.115 mg per day, BMI ≥ 30 kg/m^2, entire treatment period
[15] = LNG 0.115 mg per day, entire treatment period
[16] = LNG 0.135 mg per day, BMI < 30 kg/m^2, entire treatment period
[17] = LNG 0.135 mg per day, BMI ≥ 30 kg/m^2, entire treatment period
[18] = LNG 0.135 mg per day, entire treatment period
[19] = LNG 0.095 mg per day, end of study (on average 22 days after last treatment)
[20] = LNG 0.095 mg per day, treatment day 55 ± 1
[21] = LNG 0.115 mg per day, end of study (on average 22 days after last treatment)
[22] = LNG 0.115 mg per day, treatment day 55 ± 1
[23] = LNG 0.135 mg per day, end of study (on average 22 days after last treatment)
[24] = LNG 0.135 mg per day, treatment day 55 ± 1

## C#C[C@]1(O)CC[C@H]2[C@@H]3CCC4=CC(=O)CC[C@@H]4[C@H]3CC[C@@]21CC (racemic) [LNG, levonorgestrel]
healthy, cyclic women [1]; [4]
  Subjects with Hoogland-Skouby score 1 (No activity), %: 3.7%
  Subjects with Hoogland-Skouby score 2 (Potential activity), %: 29.6%
  Subjects with Hoogland-Skouby score 3 (Non-active FLS), %: 3.7%
  Subjects with Hoogland-Skouby score 4 (Active FLS), %: 55.6%
  Subjects with Hoogland-Skouby score 5 (LUF), %: 0%
  Subjects with Hoogland-Skouby score 6 ('Ovulation'), %: 7.4%
healthy, cyclic women [1]; [5]
  Subjects with Hoogland-Skouby score 1 (No activity), %: 0%
  Subjects with Hoogland-Skouby score 2 (Potential activity), %: 24.0%
  Subjects with Hoogland-Skouby score 3 (Non-active FLS), %: 0%
  Subjects with Hoogland-Skouby score 4 (Active FLS), %: 76.0%
  Subjects with Hoogland-Skouby score 5 (LUF), %: 0%
  Subjects with Hoogland-Skouby score 6 ('Ovulation'), %: 0%
healthy, cyclic women [1]; [6]
  Subjects with Hoogland-Skouby score 1 (No activity), %: 3.7%
  Subjects with Hoogland-Skouby score 2 (Potential activity), %: 22.2%
  Subjects with Hoogland-Skouby score 3 (Non-active FLS), %: 3.7%
  Subjects with Hoogland-Skouby score 4 (Active FLS), %: 70.4%
  Subjects with Hoogland-Skouby score 5 (LUF), %: 0%
  Subjects with Hoogland-Skouby score 6 ('Ovulation'), %: 0%
healthy, cyclic women [1]; [7]
  Subjects with Hoogland-Skouby score 1 (No activity), %: 3.85%
  Subjects with Hoogland-Skouby score 2 (Potential activity), %: 23.1%
  Subjects with Hoogland-Skouby score 3 (Non-active FLS), %: 7.7%
  Subjects with Hoogland-Skouby score 4 (Active FLS), %: 65.4%
  Subjects with Hoogland-Skouby score 5 (LUF), %: 0%
  Subjects with Hoogland-Skouby score 6 ('Ovulation'), %: 0%
healthy, cyclic women [1]; [8]
  Subjects with Hoogland-Skouby score 1 (No activity), %: 4.0%
  Subjects with Hoogland-Skouby score 2 (Potential activity), %: 32.0%
  Subjects with Hoogland-Skouby score 3 (Non-active FLS), %: 0%
  Subjects with Hoogland-Skouby score 4 (Active FLS), %: 64.0%
  Subjects with Hoogland-Skouby score 5 (LUF), %: 0%
  Subjects with Hoogland-Skouby score 6 ('Ovulation'), %: 0%
healthy, cyclic women [1]; [9]
  Subjects with Hoogland-Skouby score 1 (No activity), %: 4.0%
  Subjects with Hoogland-Skouby score 2 (Potential activity), %: 24.0%
  Subjects with Hoogland-Skouby score 3 (Non-active FLS), %: 4.0%
  Subjects with Hoogland-Skouby score 4 (Active FLS), %: 68.0%
  Subjects with Hoogland-Skouby score 5 (LUF), %: 0%
  Subjects with Hoogland-Skouby score 6 ('Ovulation'), %: 0%
healthy, cyclic women [1]; once daily oral, two 28-day treatment periods, 0.095, 0.115 and 0.135 mg tested
  Lowest dosage at which no ovulation occurred (lowest effective dosage): 0.115 mg per day
healthy, cyclic women [2]; LNG 0.095 mg per day
  LH peak in one of the ovulating subjects: 68.0 IU/L
healthy, cyclic women [2]; [10]
  Maximum E2 concentration, Mean ± SD: 705 ± 537 pmol/L
  Mean E2 concentration, Mean ± SD: 253 ± 140 pmol/L
healthy, cyclic women [2]; [11]
  Maximum E2 concentration, Mean ± SD: 484 ± 277 pmol/L
  Mean E2 concentration, Mean ± SD: 190 ± 72 pmol/L
healthy, cyclic women [2]; [12]
  Maximum E2 concentration, Mean ± SD: 660 ± 500 pmol/L
  Maximum E2 concentration, Median: 580 pmol/L
  Mean E2 concentration, Mean ± SD: 241 pmol/L and 241 ± 130 pmol/L
  Mean E2 concentration, Median: 204 pmol/L
healthy, cyclic women [2]; [4]
  Maximum E2 concentration, Mean ± SD: 595 ± 495 pmol/L
  Maximum E2 concentration, Median: 362 pmol/L
  Mean E2 concentration, Mean ± SD: 289 ± 195 pmol/L
  Mean E2 concentration, Median: 231 pmol/L
healthy, cyclic women [2]; [5]
  Maximum E2 concentration, Mean ± SD: 384 ± 304 pmol/L
  Maximum E2 concentration, Median: 224 pmol/L
  Mean E2 concentration, Mean ± SD: 186 ± 97 pmol/L
  Mean E2 concentration, Median: 144 pmol/L
healthy, cyclic women [2]; [13]
  Maximum E2 concentration, Mean ± SD: 611 ± 623 pmol/L
  Mean E2 concentration, Mean ± SD: 213 ± 160 pmol/L
healthy, cyclic women [2]; [14]
  Maximum E2 concentration, Mean ± SD: 607 ± 116 pmol/L
  Mean E2 concentration, Mean ± SD: 242 ± 66 pmol/L
healthy, cyclic women [2]; [15]
  Maximum E2 concentration, Mean ± SD: 610 ± 559 pmol/L
  Maximum E2 concentration, Median: 511 pmol/L
  Mean E2 concentration, Mean ± SD: 219 pmol/L and 219 ± 146 pmol/L
  Mean E2 concentration, Median: 186 pmol/L
healthy, cyclic women [2]; [6]
  Maximum E2 concentration, Mean ± SD: 563 ± 551 pmol/L
  Maximum E2 concentration, Median: 481 pmol/L
  Mean E2 concentration, Mean ± SD: 269 ± 217 pmol/L
  Mean E2 concentration, Median: 244 pmol/L
healthy, cyclic women [2]; [7]
  Maximum E2 concentration, Mean ± SD: 367 ± 278 pmol/L
  Maximum E2 concentration, Median: 215 pmol/L
  Mean E2 concentration, Mean ± SD: 170 ± 88 pmol/L
  Mean E2 concentration, Median: 146 pmol/L
healthy, cyclic women [2]; [16]
  Maximum E2 concentration, Mean ± SD: 415 ± 244 pmol/L
  Mean E2 concentration, Mean ± SD: 178 ± 72 pmol/L
healthy, cyclic women [2]; [17]
  Maximum E2 concentration, Mean ± SD: 421 ± 332 pmol/L
  Mean E2 concentration, Mean ± SD: 190 ± 87 pmol/L
healthy, cyclic women [2]; [18]
  Maximum E2 concentration, Mean ± SD: 416 ± 256 pmol/L
  Maximum E2 concentration, Median: 279 pmol/L
  Mean E2 concentration, Mean ± SD: 180 pmol/L and 180 ± 73 pmol/L
  Mean E2 concentration, Median: 144 pmol/L
healthy, cyclic women [2]; [8]
  Maximum E2 concentration, Mean ± SD: 369 ± 245 pmol/L
  Maximum E2 concentration, Median: 239 pmol/L
  Mean E2 concentration, Mean ± SD: 198 ± 100 pmol/L
  Mean E2 concentration, Median: 156 pmol/L
healthy, cyclic women [2]; [9]
  Maximum E2 concentration, Mean ± SD: 302 ± 184 pmol/L
  Maximum E2 concentration, Median: 242 pmol/L
  Mean E2 concentration, Mean ± SD: 162 ± 62 pmol/L
  Mean E2 concentration, Median: 148 pmol/L
healthy, cyclic women [2]; all dosages (0.095, 0.115, 0.135 mg per day)
  Subjects with mean E2 concentrations ≥110 pmol/L (30 pg/mL): 80-90%
healthy, cyclic women [2]; all dosages, except in one subject in the 0.115 mg group, 73.4 pmol/L = 20 pg/mL
  Mean E2 concentrations in all subjects: > 73.4 pmol/L
healthy, cyclic women [2]; all groups, except 2 ovulating subjects (0.095 mg), the subject with abnormal ovulation (0.135 mg) and one other subject
  Individual P concentrations during treatment: below 5 nmol/L
healthy, cyclic women [2]; all groups, except for an LH peak in one ovulating subject in the 0.095 mg group
  Individual LH concentrations: below 12.1 IU/L
healthy, cyclic women [2]; all treatment groups, 110 pmol/L (30 pg/mL) = lower limit assumed not to lead to accelerated bone loss
  Mean E2 concentrations in all LNG treatment groups: above 110 pmol/L
healthy, cyclic women [2]; first treatment visit, probably a residue from the pre-treatment cycle, dose group not stated
  Single P concentration in another subject: 5.85 nmol/L
healthy, cyclic women [3]; [19]
  SHBG, Mean ± SD: 49.9 ± 17.4 nmol/L
  SHBG, Median: 47.7 nmol/L
healthy, cyclic women [3]; [20]
  SHBG, Mean ± SD: 27.7 ± 10.6 nmol/L
  SHBG, Median: 25.5 nmol/L
healthy, cyclic women [3]; [21]
  SHBG, Mean ± SD: 48.1 ± 20.1 nmol/L
  SHBG, Median: 46.7 nmol/L
healthy, cyclic women [3]; [22]
  SHBG, Mean ± SD: 23.9 ± 12.1 nmol/L
  SHBG, Median: 18.9 nmol/L
healthy, cyclic women [3]; [23]
  SHBG, Mean ± SD: 58.6 ± 28.5 nmol/L
  SHBG, Median: 47.8 nmol/L
healthy, cyclic women [3]; [24]
  SHBG, Mean ± SD: 24.0 ± 9.5 nmol/L
  SHBG, Median: 23.7 nmol/L
healthy, cyclic women [3]; all treatment groups, end of treatment period 2
  Suppression of SHBG concentrations: approximately 60%
